Reference: the supplement of paper PMC10307832

Key:
Assay in all cases: relative viability (nuclei count vs DMSO), 5 days (fraction); higher = more cells survive
Serdemetan + OSI-027 = compound: c1ccc2c(CCNc3ccc(Nc4ccncc4)cc3)c[nH]c2c1 [Serdemetan] + COc1cccc2cc(-c3nc([C@H]4CC[C@H](C(=O)O)CC4)n4ncnc(N)c34)[nH]c12 [OSI-027] (partner 0.5 µM)
How it was run: (§1)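 After 5 days of treatment, lung cancer cells in 1536-well plates were fixed and stained in a single step (final 0.05% Triton X-100, 1% formaldehyde, 1 ug/ml Hoechst) and their nuclei counted on 4× images. Treatment had been applied by pin tool the day after seeding as one drug alone or as a fixed anchor-drug dose with five library-drug doses (not always all listed) in √10 steps. Relative viability is the nuclei count of treated wells divided by that of vehicle wells, and values are medians of duplicate plates.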

Serdemetan + Vorinostat = compound: c1ccc2c(CCNc3ccc(Nc4ccncc4)cc3)c[nH]c2c1 [Serdemetan] + O=C(CCCCCCC(=O)Nc1ccccc1)NO [Vorinostat] (partner 1 µM)
How it was run: as §1

Serdemetan + Linsitinib = compound: c1ccc2c(CCNc3ccc(Nc4ccncc4)cc3)c[nH]c2c1 [Serdemetan] + C[C@]1(O)C[C@@H](c2nc(-c3ccc4ccc(-c5ccccc5)nc4c3)c3c(N)nccn32)C1 [Linsitinib] (partner 1 µM)
How it was run: as §1

Serdemetan + Alpelisib = compound: c1ccc2c(CCNc3ccc(Nc4ccncc4)cc3)c[nH]c2c1 [Serdemetan] + Cc1nc(NC(=O)N2CCC[C@H]2C(N)=O)sc1-c1ccnc(C(C)(C)C(F)(F)F)c1 [Alpelisib] (partner 2 µM)
How it was run: as §1

| Cell Line | relative viability (Serdemetan + OSI-027; first compound 0.04 µM) | relative viability (Serdemetan + OSI-027; first compound 0.1265 µM) | relative viability (Serdemetan + OSI-027; first compound 0.4 µM) | relative viability (Serdemetan + OSI-027; first compound 4 µM) | relative viability (Serdemetan + Vorinostat; first compound 0.04 µM) | relative viability (Serdemetan + Vorinostat; first compound 0.1265 µM) | relative viability (Serdemetan + Vorinostat; first compound 0.4 µM) | relative viability (Serdemetan + Vorinostat; first compound 1.265 µM) | relative viability (Serdemetan + Vorinostat; first compound 4 µM) | relative viability (Serdemetan + Linsitinib; first compound 0.04 µM) | relative viability (Serdemetan + Linsitinib; first compound 0.1265 µM) | relative viability (Serdemetan + Linsitinib; first compound 0.4 µM) | relative viability (Serdemetan + Linsitinib; first compound 1.265 µM) | relative viability (Serdemetan + Linsitinib; first compound 4 µM) | relative viability (Serdemetan + Alpelisib; first compound 0.04 µM) | relative viability (Serdemetan + Alpelisib; first compound 0.1265 µM) | relative viability (Serdemetan + Alpelisib; first compound 0.4 µM) | relative viability (Serdemetan + Alpelisib; first compound 1.265 µM) | relative viability (Serdemetan + Alpelisib; first compound 4 µM) | relative viability (Serdemetan + OSI-027; first compound 1.265 µM) |
| --- | --- | --- | --- | --- | --- | --- | --- | --- | --- | --- | --- | --- | --- | --- | --- | --- | --- | --- | --- | --- |
| NCI-H522 | 0.814 | 0.704 | 0.887 | 0.712 | 0.982 | 0.955 | 0.923 | 0.831 | 0.799 | – | – | – | – | – | – | – | – | – | – | – |
| HCC-15 | 0.643 | 0.75 | 0.624 | 0.522 | 0.848 | 0.83 | 0.704 | 0.681 | 0.456 | 0.861 | 0.893 | 0.797 | 0.647 | 0.62 | 0.924 | 0.825 | 0.856 | 0.531 | 0.579 | 0.452 |
| A-427 | 0.526 | 0.509 | 0.539 | 0.36 | 0.854 | 0.849 | 0.867 | 0.779 | 0.709 | 1.06 | 1.04 | 1.07 | 0.883 | 0.576 | 1.05 | 1.05 | 1.1 | 0.833 | 0.561 | 0.455 |
| NCI-H2228 | 0.526 | 0.523 | 0.464 | 0.221 | 0.588 | 0.542 | 0.573 | 0.244 | 0.219 | 0.806 | 0.68 | 0.519 | 0.59 | 0.397 | 0.762 | 0.554 | 0.46 | 0.307 | 0.294 | 0.17 |
| NCI-H1734 | 0.586 | 0.523 | 0.554 | 0.196 | 0.65 | 0.366 | 0.331 | 0.149 | 0.128 | 0.702 | – | 0.299 | 0.182 | 0.194 | 0.61 | – | 0.259 | 0.122 | 0.178 | 0.138 |
| PC-14 | 0.843 | 0.767 | 0.139 | 0.514 | 0.718 | 0.811 | – | 0.645 | 0.266 | 0.901 | 0.952 | 0.909 | 0.78 | 0.805 | 0.954 | 0.93 | 0.784 | 0.852 | 0.825 | 0.759 |
| NCI-H1915 | 0.683 | 0.688 | 0.586 | 0.566 | 0.538 | 0.535 | 0.513 | 0.508 | 0.509 | 1.03 | 1.08 | 1.08 | 0.975 | 0.908 | 1.04 | 1.06 | 1.01 | 0.503 | 0.802 | 0.362 |
| NCI-H1666 | 0.898 | 0.887 | 0.847 | 0.771 | 0.896 | 0.935 | 0.907 | – | 0.713 | 0.944 | 0.85 | 0.761 | 0.784 | 0.724 | 1.22 | 1 | 0.891 | 0.794 | 0.807 | 0.667 |
| HCC-366 | 0.87 | 0.858 | 0.733 | 0.122 | 0.351 | 0.166 | 0.191 | 0.047 | 0.0752 | 0.731 | 0.317 | 0.244 | 0.0612 | 0.0456 | 0.403 | 0.434 | 0.208 | 0.0495 | 0.0462 | 0.173 |
| SK-MES-1 | 0.572 | 0.578 | 0.621 | 0.447 | 0.962 | 1.08 | 0.889 | 0.962 | 0.71 | 0.964 | 1.2 | 1.03 | 0.796 | 0.674 | 0.836 | 0.792 | 0.74 | 0.834 | 0.526 | 0.541 |
| SW 1573 | 0.749 | 0.705 | 0.716 | 0.289 | 0.662 | 0.932 | 0.974 | 0.615 | 0.208 | 0.81 | 0.769 | 0.738 | 0.346 | 0.258 | 0.7 | 0.791 | 0.722 | 0.463 | 0.385 | 0.439 |
| NCI-H661 | 0.689 | 0.706 | 0.736 | 0.69 | 0.77 | 0.793 | 0.738 | 0.712 | 0.752 | 0.521 | 0.635 | 0.606 | 0.563 | 0.418 | 0.759 | 0.429 | 0.676 | 0.197 | 0.428 | 0.672 |
| PC-3 [JPC-3] | 0.83 | 0.741 | 0.58 | 0.831 | 0.877 | 0.807 | 0.671 | 0.626 | 0.835 | 0.92 | 0.972 | – | 0.919 | 0.985 | 1.04 | 0.979 | – | 1.01 | 1.05 | 0.749 |
| NCI-H1623 | 0.457 | 0.395 | 0.359 | 0.395 | – | – | – | – | – | – | – | – | – | – | – | – | – | – | – | 0.389 |
| Calu-6 | – | – | – | – | – | – | – | – | – | 0.895 | 0.962 | 0.958 | 0.913 | 0.698 | 0.934 | 1.01 | 0.929 | 0.788 | 0.674 | – |
| LC-2-ad | 0.716 | 0.85 | 0.877 | 0.763 | 0.71 | 0.683 | 0.673 | 0.646 | 0.638 | 0.908 | 0.805 | 0.857 | – | 0.722 | 0.987 | 0.804 | 0.803 | – | 0.806 | 0.659 |
| CAL-12T | 0.827 | 0.638 | 0.653 | 0.518 | 0.857 | 0.82 | 0.748 | 0.922 | 0.627 | 0.77 | 0.793 | 0.698 | 0.864 | 0.651 | 1.11 | 1.5 | 1.23 | – | 1.18 | 0.579 |
| RERF-LC-KJ | 0.589 | 0.711 | 0.442 | 0.401 | 0.687 | 0.611 | 0.609 | 0.71 | 0.654 | 0.869 | 0.851 | 0.857 | 0.745 | 0.727 | 0.804 | 0.832 | 0.777 | 0.801 | 0.643 | 0.498 |
